# Measured values reported in patent publication US9474790B2, “Stable, protracted GLP-1/glucagon receptor co-agonists for medical use” (Novo Nordisk A/S, priority 2013, dated 2016).
# Numbered stars: 1 amine (or outer) side, 2 acyl side, 3 side chain; on linkers, the order of the positions; unused ones are H or OH. Square brackets hold non-standard residues; d marks the D form. Side chains are listed from the residue outwards. Peptide text beside a SMILES is read from it. * marks the point of attachment. C18 diacid = O=C(O)CCCCCCCCCCCCCCCCC(=O)*; γGlu = O=C(O)[C@H](CCC(=O)[*:2])N[*:1]; Ac4c = NC1(C(=O)O)CCC1; AEEA = NCCOCCOCC(=O)O; Aib = CC(C)(N)C(=O)O
# Target: T1, human glucagon receptor (Homo sapiens, UniProt P47871)
# T1 construct: expressed in transfected cells; host or cells: BHK cells (parent BHK570, CRE luciferase clone BHK/KZ10-20-48), clone pLJ6'-4-25
# Assay: Glucagon receptor potency, CRE luciferase reporter gene assay in BHK cells
# Type: cell-based
# Settings: BHK cells expressing human glucagon receptor, read-out: EC50 GlucR
# In short: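 EC50 (pM) comes from a four-parameter fit of luciferase luminescence after 3 h at 37 °C with compound at final 1×10EE-13–1×10EE-6 M. Cells: BHK570-derived line carrying human glucagon receptor plus CRE-luciferase, 5×10EE3/well, in assay medium with 2% ovalbumin, 0.2% Pluronic F-68.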
# T1 sequence (P47871 26-477): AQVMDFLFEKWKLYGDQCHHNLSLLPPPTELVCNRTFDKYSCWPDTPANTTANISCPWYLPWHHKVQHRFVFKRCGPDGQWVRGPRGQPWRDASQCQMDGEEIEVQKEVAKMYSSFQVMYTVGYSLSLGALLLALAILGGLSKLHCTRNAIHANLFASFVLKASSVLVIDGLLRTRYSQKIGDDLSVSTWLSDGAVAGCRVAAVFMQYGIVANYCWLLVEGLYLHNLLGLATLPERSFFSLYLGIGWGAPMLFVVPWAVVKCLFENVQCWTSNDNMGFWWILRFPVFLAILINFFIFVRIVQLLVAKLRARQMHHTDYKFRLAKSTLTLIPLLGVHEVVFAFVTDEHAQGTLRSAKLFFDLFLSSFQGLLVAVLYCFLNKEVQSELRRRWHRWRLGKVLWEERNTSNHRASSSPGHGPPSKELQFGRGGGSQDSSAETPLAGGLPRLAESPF
row,Compound,EC50 [pM]
1,"CC(C)C[C@H](NC(=O)[C@H](Cc1ccc(O)cc1)NC(=O)[C@H](CCCCN)NC(=O)[C@H](CO)NC(=O)[C@H](CC(C)C)NC(=O)[C@H](CC(=O)O)NC(=O)[C@H](CO)NC(=O)[C@@H](NC(=O)[C@H](Cc1ccccc1)NC(=O)[C@@H](NC(=O)CNC(=O)[C@H](Cc1c[nH]cn1)NC(=O)C(C)(C)NC(=O)[C@@H](N)Cc1c[nH]cn1)[C@@H](C)O)[C@@H](C)O)C(=O)N[C@@H](CCC(=O)O)C(=O)N[C@@H](CO)C(=O)N[C@@H](CCCCN)C(=O)N[C@@H](CCCNC(=N)N)C(=O)N[C@@H](C)C(=O)N[C@@H](CCCNC(=N)N)C(=O)N[C@@H](CCC(=O)O)C(=O)N[C@@H](Cc1ccccc1)C(=O)N[C@H](C(=O)N[C@@H](CCC(N)=O)C(=O)N[C@@H](Cc1c[nH]c2ccccc12)C(=O)N[C@@H](CC(C)C)C(=O)N[C@@H](CC(C)C)C(=O)N[C@@H](CCCCNC(=O)CC[C@H](NC(=O)CC[C@H](NC(=O)CC[C@H](NC(=O)CCCCCCCCCCCCCCCCC(=O)O)C(=O)O)C(=O)O)C(=O)O)C(=O)N[C@H](C(N)=O)[C@@H](C)O)C(C)C [Example 34, N^ε28-[(4S)-4-carboxy-4-[[(4S)-4-carboxy-4-[[(4S)-4-carboxy-4-(17-carboxyheptadecanoylamino)butanoyl]amino]butanoyl]amino]butanoyl]-[Aib2,His3,Leu10,Glu15,Lys17,Arg20,Glu21,Leu27,Lys28]-Glucagon amide] (H-H[Aib]HGTFTSDLSKYLESKRAREFVQWLLK([γGlu-γGlu-γGlu-C18 diacid])T-NH2; N-terminus assumed)",2.9
2,"CC(C)C[C@H](NC(=O)[C@H](CC(=O)O)NC(=O)[C@H](CC(C)C)NC(=O)[C@H](Cc1ccc(O)cc1)NC(=O)[C@H](CCCCN)NC(=O)[C@H](CO)NC(=O)[C@H](CC(C)C)NC(=O)[C@H](CC(=O)O)NC(=O)[C@H](CO)NC(=O)[C@@H](NC(=O)[C@H](Cc1ccccc1)NC(=O)[C@@H](NC(=O)CNC(=O)[C@H](CCC(N)=O)NC(=O)C1(NC(=O)[C@@H](N)Cc2c[nH]cn2)CCC1)[C@@H](C)O)[C@@H](C)O)C(=O)N[C@@H](CCCCN)C(=O)N[C@@H](CCCNC(=N)N)C(=O)N[C@@H](C)C(=O)N[C@@H](CCCNC(=N)N)C(=O)N[C@@H](CCC(=O)O)C(=O)N[C@@H](Cc1ccccc1)C(=O)N[C@H](C(=O)N[C@@H](CCC(N)=O)C(=O)N[C@@H](Cc1c[nH]c2ccccc12)C(=O)N[C@@H](CC(C)C)C(=O)N[C@@H](CC(C)C)C(=O)N[C@@H](CCCCNC(=O)CC[C@H](NC(=O)CC[C@H](NC(=O)COCCOCCNC(=O)COCCOCCNC(=O)CC[C@H](NC(=O)CC[C@H](NC(=O)CCCCCCCCCCCCCCCCC(=O)O)C(=O)O)C(=O)O)C(=O)O)C(=O)O)C(=O)N[C@H](C(N)=O)[C@@H](C)O)C(C)C [Example 47, N^ε28-[(4S)-4-carboxy-4-[[(4S)-4-carboxy-4-[[2-[2-[2-[[2-[2-[2-[[(4S)-4-carboxy-4-[[(4S)-4-carboxy-4-(17-carboxyheptadecanoylamino)butanoyl]amino]butanoyl]amino]ethoxy]ethoxy]acetyl]amino]ethoxy]ethoxy]acetyl]amino]butanoyl]amino]butanoyl]-[Acb2,Leu10,Leu16,Lys17,Arg20,Glu21,Leu27,Lys28]-Glucagon amide] (H-H[Ac4c]QGTFTSDLSKYLDLKRAREFVQWLLK([γGlu-γGlu-AEEA-AEEA-γGlu-γGlu-C18 diacid])T-NH2; N-terminus assumed)",5
3,"CC(C)C[C@H](NC(=O)[C@H](CC(=O)O)NC(=O)[C@H](CC(C)C)NC(=O)[C@H](Cc1ccc(O)cc1)NC(=O)[C@H](CCCCN)NC(=O)[C@H](CO)NC(=O)[C@H](CC(C)C)NC(=O)[C@H](CC(=O)O)NC(=O)[C@H](CO)NC(=O)[C@@H](NC(=O)[C@H](Cc1ccccc1)NC(=O)[C@@H](NC(=O)CNC(=O)[C@H](CCC(N)=O)NC(=O)C1(NC(=O)[C@@H](N)Cc2c[nH]cn2)CCC1)[C@@H](C)O)[C@@H](C)O)C(=O)N[C@@H](CCCNC(=N)N)C(=O)N[C@@H](CCCNC(=N)N)C(=O)N[C@@H](C)C(=O)N[C@@H](CCCNC(=N)N)C(=O)N[C@@H](CCC(=O)O)C(=O)N[C@@H](Cc1ccccc1)C(=O)N[C@H](C(=O)N[C@@H](CCC(N)=O)C(=O)N[C@@H](Cc1c[nH]c2ccccc12)C(=O)N[C@@H](CC(C)C)C(=O)N[C@@H](CC(C)C)C(=O)N[C@@H](CCCCNC(=O)CC[C@H](NC(=O)CC[C@H](NC(=O)COCCOCCNC(=O)COCCOCCNC(=O)CC[C@H](NC(=O)CC[C@H](NC(=O)CCCCCCCCCCCCCCCCC(=O)O)C(=O)O)C(=O)O)C(=O)O)C(=O)O)C(=O)N[C@H](C(N)=O)[C@@H](C)O)C(C)C [Example 49, N^ε28-[(4S)-4-carboxy-4-[[(4S)-4-carboxy-4-[[2-[2-[2-[[2-[2-[2-[[(4S)-4-carboxy-4-[[(4S)-4-carboxy-4-(17-carboxyheptadecanoylamino)butanoyl]amino]butanoyl]amino]ethoxy]ethoxy]acetyl]amino]ethoxy]ethoxy]acetyl]amino]butanoyl]amino]butanoyl]-[Acb2,Leu10,Leu16,Arg20,Glu21,Leu27,Lys28]-Glucagon amide] (H-H[Ac4c]QGTFTSDLSKYLDLRRAREFVQWLLK([γGlu-γGlu-AEEA-AEEA-γGlu-γGlu-C18 diacid])T-NH2; N-terminus assumed)",4

# Further molecules by falling EC50, results first:
row,EC50 [pM],Compound
1,5,"CC(C)C[C@H](NC(=O)[C@H](Cc1ccc(O)cc1)NC(=O)[C@H](CCCCN)NC(=O)[C@H](CO)NC(=O)[C@H](CC(C)C)NC(=O)[C@H](CC(=O)O)NC(=O)[C@H](CO)NC(=O)[C@@H](NC(=O)[C@H](Cc1ccccc1)NC(=O)[C@@H](NC(=O)CNC(=O)[C@H](CCC(N)=O)NC(=O)C1(NC(=O)[C@@H](N)Cc2c[nH]cn2)CCC1)[C@@H](C)O)[C@@H](C)O)C(=O)N[C@@H](CCC(=O)O)C(=O)N[C@@H](CO)C(=O)N[C@@H](CCCCN)C(=O)N[C@@H](CCCNC(=N)N)C(=O)N[C@@H](C)C(=O)N[C@@H](CCCNC(=N)N)C(=O)N[C@@H](CCC(=O)O)C(=O)N[C@@H](Cc1ccccc1)C(=O)N[C@H](C(=O)N[C@@H](CCC(N)=O)C(=O)N[C@@H](Cc1c[nH]c2ccccc12)C(=O)N[C@@H](CC(C)C)C(=O)N[C@@H](CC(C)C)C(=O)N[C@@H](CCCCNC(=O)CC[C@H](NC(=O)CC[C@H](NC(=O)[C@H](CO)NC(=O)[C@H](CCC(=O)O)NC(=O)[C@H](CO)NC(=O)CC[C@H](NC(=O)CC[C@H](NC(=O)CCCCCCCCCCCCCCCCC(=O)O)C(=O)O)C(=O)O)C(=O)O)C(=O)O)C(=O)N[C@H](C(N)=O)[C@@H](C)O)C(C)C [Example 68, N^ε28-[(4S)-4-carboxy-4-[[(4S)-4-carboxy-4-[[(2S)-2-[[(2S)-4-carboxy-2-[[(2S)-2-[[(4S)-4-carboxy-4-[[(4S)-4-carboxy-4-(17-carboxyheptadecanoylamino)butanoyl]amino]butanoyl]amino]-3-hydroxypropanoyl]amino]butanoyl]amino]-3-hydroxypropanoyl]amino]butanoyl]amino]butanoyl]-[Acb2,Leu10,Glu15,Lys17,Arg20,Glu21,Leu27,Lys28]-Glucagon amide] (H-H[Ac4c]QGTFTSDLSKYLESKRAREFVQWLLK([γGlu-γGlu-Ser-Glu-Ser-γGlu-γGlu-C18 diacid])T-NH2; N-terminus assumed)"
2,4,"CC(C)C[C@H](NC(=O)[C@H](Cc1c[nH]c2ccccc12)NC(=O)[C@H](CCC(N)=O)NC(=O)[C@@H](NC(=O)[C@H](Cc1ccccc1)NC(=O)[C@H](CCC(=O)O)NC(=O)[C@H](CCCNC(=N)N)NC(=O)[C@H](C)NC(=O)[C@H](CCCNC(=N)N)NC(=O)[C@H](CCCNC(=N)N)NC(=O)C(C)(C)NC(=O)[C@H](CC(=O)O)NC(=O)[C@H](CC(C)C)NC(=O)[C@H](Cc1ccc(O)cc1)NC(=O)[C@H](CCCCN)NC(=O)[C@H](CO)NC(=O)[C@H](CC(C)C)NC(=O)[C@H](CC(=O)O)NC(=O)[C@H](CO)NC(=O)[C@@H](NC(=O)[C@H](Cc1ccccc1)NC(=O)[C@@H](NC(=O)CNC(=O)[C@H](CCC(N)=O)NC(=O)C(C)(C)NC(=O)[C@@H](N)Cc1c[nH]cn1)[C@@H](C)O)[C@@H](C)O)C(C)C)C(=O)N[C@@H](CC(C)C)C(=O)N[C@@H](CCCCNC(=O)CC[C@H](NC(=O)CC[C@H](NC(=O)COCCOCCNC(=O)COCCOCCNC(=O)CC[C@H](NC(=O)CCCCCCCCCCCCCCCCC(=O)O)C(=O)O)C(=O)O)C(=O)O)C(=O)N[C@H](C(N)=O)[C@@H](C)O [Example 51, N^ε28-[(4S)-4-carboxy-4-[[(4S)-4-carboxy-4-[[2-[2-[2-[[2-[2-[2-[[(4S)-4-carboxy-4-(17-carboxyheptadecanoylamino)butanoyl]amino]ethoxy]ethoxy]acetyl]amino]ethoxy]ethoxy]acetyl]amino]butanoyl]amino]butanoyl]-[Aib2,Leu10,Aib16,Arg20,Glu21,Leu27,Lys28]-Glucagon amide] (H-H[Aib]QGTFTSDLSKYLD[Aib]RRAREFVQWLLK([γGlu-γGlu-AEEA-AEEA-γGlu-C18 diacid])T-NH2; N-terminus assumed)"
